Data reported in PubChem BioAssay (NCI).
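Cultured in 96-well plates, cells were exposed to test compound for 48 hours across five concentrations. The concentration for 50% growth inhibition is given as GI50. Definition used: TGI = concentration required for complete inhibition of growth.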

Columns and labels:
Experiment in all cases: NCI tumour cell line growth inhibition, 48 h
[1] = test system: A498 renal
[2] = test system: HOP-92 NSCLC
[3] = test system: MCF7 breast
[4] = test system: CAKI-1 renal
[5] = test system: K-562 leukemia
[6] = test system: SF-295 CNS
[7] = test system: NCI-H522 lung
[8] = test system: OVCAR-8 ovarian
[9] = test system: ACHN renal
[10] = test system: OVCAR-3 ovarian

Structure (SMILES) | TGI [1] [µM] | TGI [2] [µM] | TGI [3] [µM] | TGI [4] [µM] | TGI [5] [µM] | TGI [6] [µM] | TGI [7] [µM] | TGI [8] [µM] | TGI [9] [µM] | TGI [10] [µM] | GI50 [1] [µM] | GI50 [6] [µM] | GI50 [7] [µM]
CCN(CC)CCn1c(=O)c2c(C)c3oc4ccccc4oc3c(C)c2c1=O | > 100 | > 100 | > 100 | > 100 | > 100 | > 100 | > 100 | > 100 | > 100 | – | – | – | –
Cc1c(Cl)cccc1N=NC(=O)NNc1cccc(Cl)c1C | 27.7 | – | – | – | 40.5 | – | 39.8 | 26.6 | 45.3 | 31.4 | – | – | –
C=CC(C)C1(CCCOCc2ccccc2)C(=S)N2CCC3(CC24CCCC14)OCCO3 (stereo unspecified) | > 100 | – | – | > 100 | > 100 | > 100 | 64.4 | > 100 | > 100 | > 100 | – | – | –
CCOC(=O)CCN1C(=O)C(=O)N(c2ccc(OC)cc2)C1=S | > 100 | > 100 | – | > 100 | > 100 | > 100 | > 100 | > 100 | > 100 | – | – | – | –
CCOC1NC(=O)Oc2cc3ccccc3cc21 (stereo unspecified) | – | 82.8 | > 100 | – | > 100 | > 100 | > 100 | > 100 | > 100 | > 100 | – | – | –
CC1(C)C2CCC1C(=O)[C@@]1(C=CC(=O)CC1)C2 (stereo partly specified) | – | > 100 | > 100 | – | > 100 | > 100 | > 100 | > 100 | > 100 | > 100 | – | – | –
O=C(O)/C(=C\c1ccc(O)cc1)c1cccc2ccccc12 | > 100 | > 100 | – | > 100 | > 100 | > 100 | > 100 | > 100 | > 100 | > 100 | – | – | –
COc1ccc(-c2ncn(C[Si](C)(C)C)c2-c2ccc(OC)cc2)cc1 | – | 17.5 | 31.1 | 21.9 | 10.6 | 18.3 | 16.2 | 31.4 | 20.5 | – | – | – | –
COC(=O)CCNc1c2ccccc2nc2cccc([N+](=O)[O-])c12 | 0.0585 | – | 0.277 | – | 0.00152 | – | 0.00493 | – | – | 0.00397 | 0.0185 | 0.00261 | 0.0016
COC(=O)C(Cc1ccc(N(C)C)cc1)(NC(=O)c1ccccc1)P(=O)(OC)OC (stereo unspecified) | > 100 | > 100 | – | > 100 | > 100 | > 100 | > 100 | > 100 | > 100 | – | – | – | –
O=C(C/C(=N/O)C(F)(F)F)c1cccs1 | > 100 | > 100 | > 100 | > 100 | > 100 | > 100 | – | > 100 | > 100 | > 100 | – | – | –
CCOC(=O)[C@@]1(C)CC(O)C(=O)N1C (stereo partly specified) | – | > 100 | > 100 | > 100 | – | > 100 | > 100 | > 100 | > 100 | > 100 | – | – | –
CN(O)C(=O)CCCC(=O)NCC(C)(C)CNC(=O)CCCC(=O)N(C)O | > 100 | > 100 | > 100 | > 100 | > 100 | > 100 | – | > 100 | > 100 | > 100 | – | – | –
Cc1cc2c(c(S(=O)(=O)c3ccccc3[N+](=O)[O-])c1)NCCC2 | > 100 | – | > 100 | – | – | > 100 | > 100 | > 100 | > 100 | > 100 | – | – | –
N#Cc1cc(Sc2ccc(N)c(C#N)c2)ccc1N | > 100 | > 100 | > 100 | – | 60.2 | > 100 | – | 55.2 | > 100 | > 100 | – | – | –
C/C=C(\C)C(=O)O[C@@H]1CC(C)(C)CC2C3=CCC4[C@]56CC[C@](O)(OC5)C(C)(C)C6CC[C@@]4(C)C3(C)CC[C@]21C(=O)O (stereo partly specified) | > 100 | – | > 100 | > 100 | > 100 | > 100 | > 100 | > 100 | > 100 | > 100 | – | – | –
O=c1[nH]nc(Nc2ccccc2)c2nnn(C3CCCCC3)c12 | – | > 100 | > 100 | > 100 | > 100 | > 100 | – | > 100 | > 100 | > 100 | – | – | –
Nc1ccc2ccc(N3CCNCC3)nc2n1 | – | > 100 | > 100 | > 100 | > 100 | > 100 | > 100 | > 100 | > 100 | > 100 | – | – | –
C=CCOC(OCC=C)/C(Br)=C/C | > 100 | > 100 | > 100 | > 100 | > 100 | > 100 | – | 37 | 45.3 | > 100 | – | – | –
